Measured values reported in the CheMixHub ionic liquid set.

Test: xn = mol fraction of the nth substance listed

CC(O)C(=O)[O-].CCOCCn1cc[n+](C)c1 + O
100 kPa
Settings	electrical conductivity [S/m]	viscosity [mPa·s]
293.15 K, x1 = 0.8093	0.292	70.03
293.15 K, x1 = 0.8365	0.261	74.7
293.15 K, x1 = 0.9017	0.2	85.7
298.15 K, x1 = 0.8702	0.276	60.47
303.15 K, x1 = 0.938	0.274	52.44
308.15 K, x1 = 0.8093	0.498	31.76
308.15 K, x1 = 0.8365	0.464	33.56
308.15 K, x1 = 0.8702	0.43	35.75
318.15 K, x1 = 0.9017	0.617	22.56

CCCCCC[n+]1ccn(C)c1.F[P-](F)(F)(F)(F)F + O
101 kPa, x2 = 0.22
Settings	electrical conductivity [S/m]	viscosity [mPa·s]
293.15 K	–	269
295.15 K	0.1	–

CCCC[n+]1ccn(C)c1.F[P-](F)(F)(F)(F)F + O
Settings	electrical conductivity [S/m]	viscosity [mPa·s]
293.15 K, 100 kPa, x1 = 0.0001838	–	1.011
293.15 K, 100 kPa, x1 = 0.0005385	–	1.025
293.15 K, 100 kPa, x1 = 0.0008966	–	1.038
293.15 K, 100 kPa, x1 = 0.001262	–	1.041
298.15 K, 100 kPa, x1 = 0.0001838	–	0.905
298.15 K, 100 kPa, x1 = 0.0005385	–	0.916
298.15 K, 100 kPa, x1 = 0.0008966	–	0.922
298.15 K, 100 kPa, x1 = 0.001262	–	0.932
298.15 K, 101 kPa, x1 = 0.00129	–	0.929
298.15 K, 101 kPa, x2 = 0	0.157	260
298.15 K, 101 kPa, x2 = 0.0518	0.197	200
298.15 K, 101 kPa, x2 = 0.0985	0.235	154
298.15 K, 101 kPa, x2 = 0.1409	0.281	127
298.15 K, 101 kPa, x2 = 0.1794	0.334	109
298.15 K, 101 kPa, x2 = 0.2146	0.383	92
303.15 K, 100 kPa, x1 = 0.0001838	–	0.821
303.15 K, 100 kPa, x1 = 0.0005385	–	0.826
303.15 K, 100 kPa, x1 = 0.001262	–	0.843
308.15 K, 100 kPa, x1 = 0.0001838	–	0.742
308.15 K, 100 kPa, x1 = 0.0005385	–	0.744
308.15 K, 100 kPa, x1 = 0.0008966	–	0.75
308.15 K, 100 kPa, x1 = 0.001262	–	0.761
313.15 K, 100 kPa, x1 = 0.0001838	–	0.661
313.15 K, 100 kPa, x1 = 0.0005385	–	0.674
313.15 K, 100 kPa, x1 = 0.0008966	–	0.677
313.15 K, 100 kPa, x1 = 0.001262	–	0.683

101 kPa, frequency 6e-05 MHz
Settings	electrical conductivity [S/m]
293.2 K, x2 = 0.1	0.199
298.2 K, x2 = 0.05	0.231
298.2 K, x2 = 0.15	0.361
308.2 K, x2 = 0.1	0.401
308.2 K, x2 = 0.2	0.546
313.2 K, x2 = 0.15	0.561
318.2 K, x2 = 0.05	0.491
318.2 K, x2 = 0.2	0.775
323.2 K, x2 = 0.1	0.678
333.2 K, x2 = 0.2	1.06
343.2 K, x2 = 0.15	1.06
353.2 K, x2 = 0.15	1.405
353.2 K, x2 = 0.2	1.621

CC[n+]1ccn(C)c1.O=S(=O)([O-])O + O
viscosity [mPa·s]
Settings	293.15 K	298.15 K	303.15 K	308.15 K	313.15 K	318.15 K
100 kPa, x1 = 0.0005421	1.046	0.929	0.824	0.75	0.678	–
100 kPa, x1 = 0.0009002	1.05	0.94	0.84	0.76	0.69	0.65
100 kPa, x1 = 0.0009056	1.068	0.949	0.843	0.759	0.684	–
100 kPa, x1 = 0.001263	1.073	0.966	0.866	0.78	0.697	–
100 kPa, x1 = 0.001799	1.07	0.95	0.85	0.77	0.7	0.64
100 kPa, x1 = 0.002696	1.08	0.96	0.86	0.78	0.71	0.64
101 kPa, x1 = 0.0006645	1.023	0.93	0.8234	0.7498	0.6736	–
101 kPa, x1 = 0.0007293	1.036	0.943	0.8247	0.7493	0.6893	–
101 kPa, x1 = 0.0009254	1.064	0.943	0.8439	0.7628	0.6829	–

COCCCn1cc[n+](C)c1.O=S(=O)([N-]S(=O)(=O)C(F)(F)F)C(F)(F)F + O
Settings	viscosity [mPa·s]
283 K, 101 kPa, x1 = 0.8316	82.6

Cn1cc[nH+]c1.[Cl-] + O
viscosity [mPa·s], 100 kPa
Settings	x1 = 9.081e-05	x1 = 0.000182	x1 = 0.0003637	x1 = 0.0005491	x1 = 0.0007277	x1 = 0.0008883	x1 = 0.001091	x1 = 0.001364	x1 = 0.00178
278.15 K	1.521	1.523	1.525	1.528	1.53	1.532	1.535	1.539	1.543
283.15 K	1.308	1.309	1.311	1.313	1.314	1.316	1.319	1.32	1.323
288.15 K	1.139	1.141	1.142	1.144	1.145	1.146	1.149	1.151	1.153
293.15 K	1.003	1.004	1.005	1.007	1.009	1.01	1.013	1.014	1.018
298.15 K	0.89	0.891	0.892	0.894	0.896	0.897	0.899	0.901	0.904
303.15 K	0.798	0.799	0.8	0.801	0.803	0.804	0.805	0.806	0.808
308.15 K	0.719	0.72	0.721	0.722	0.723	0.724	0.725	0.727	0.728
313.15 K	0.652	0.653	0.654	0.655	0.656	0.657	0.658	0.659	0.662
